The results in this text go back to ChEMBL document CHEMBL3352059, “Neuroprotective effects of a brain permeant 6-aminoquinoxaline derivative in cell culture conditions that model the loss of dopaminergic neurons in Parkinson disease” (Eur J Med Chem, 2015).

Series [1] is filed under the species Rattus norvegicus. Description: Neuroprotective effect in Sprague-Dawley rat DA neurons assessed as developement of neuritic network at 100 uM after 10 days by microscopic analysis relative to control. It counts as functional.
Series [2] deals with Mus musculus. The series can be described thus: Toxicity in C57BL/6J mouse assessed as behavioral change at 150 mg/kg, po bid administered for 4 days followed by single dose on day 5 […]. It counts as organism-based. The arrangement: dose 150 mg/kg, route oral. The conditions noted are these: in vivo, 96 h.
The species entered for series [3] is Rattus norvegicus. Description: Neuroprotective effect in Sprague-Dawley rat DA neurons at 10 uM under chronic oxidative stress condition. It counts as functional.
The test system of series [4] is Brain. The series can be described thus: Drug uptake in C57BL/6J mouse brain at 150 mg/kg, po bid administered for 4 days followed by single dose on day 5 measured 1 hr post last dose. The series is classed as ADME, organism-based. The arrangement: dose 150 mg/kg, route oral. The conditions noted are these: in vivo.
The species named for series [5] is Rattus norvegicus. The series can be described thus: Neuroprotective effect in Sprague-Dawley rat DA neurons at 100 uM after 10 days by immunofluorescence assay. It counts as functional.
For series [6], the species on record is Rattus norvegicus. The series can be described thus: Neuroprotective effect in Sprague-Dawley rat DA neurons assessed as [3H]-DA uptake at 100 uM after 10 days by liquid scintillation spectrometry relative to control. It counts as functional.
For series [7], the species on record is Rattus norvegicus. The series can be described thus: Neuroprotective effect in Sprague-Dawley rat DA neurons at 100 uM in presence of anti-GDNF antibody AB-212-NA. It counts as functional.
The species entered for series [8] is Rattus norvegicus. The series can be described thus: Antiproliferative activity at Sprague-Dawley rat DA neurons assessed as reduction of [3H]-thymidine incorporation at 50 to 100 uM after 8 days by liquid scintillation spectrometry. It counts as functional. (Dividing cells build labelled thymidine or BrdU into new DNA.)
Series [9] is filed under the species Rattus norvegicus. Description: Neuroprotective effect in Sprague-Dawley rat DA neurons under GDNF deprived condition at 50 to 100 uM. It counts as functional.
Series [10] can be described thus: Antioxidant activity assessed as radical scavenging activity after 1 hr by ABTS competition assay. The series is classed as physicochemical.
The nature of series [11]: Drug uptake in C57BL/6J mouse ventral mesencephalon at 75 mg/kg, po after 1 hr by MALDI-TOF mass spectrometry. The series is classed as ADME, organism-based. The arrangement: dose 75 mg/kg, route oral. The conditions noted are these: in vivo.
Series [12] concerns Mus musculus. The series can be described thus: Toxicity in C57BL/6J mouse assessed as change in body weight at 150 mg/kg, po bid administered for 4 days followed by single dose on day 5 […]. It counts as organism-based. The arrangement: dose 150 mg/kg, route oral. The conditions noted are these: in vivo, 96 h.
Series [13] can be described thus: Ratio of drug uptake from brain to plasma in C57BL/6J mouse at 150 mg/kg, po bid administered for 4 days followed by single dose on day 5 measured 1 hr post last dose. The series is classed as ADME, organism-based. The arrangement: dose 150 mg/kg, route oral. The conditions noted are these: read-out: BPR.
Series [14] concerns Brain. Description: Drug uptake in C57BL/6J mouse brain at 75 mg/kg, po after 1 hr by MALDI-TOF mass spectrometry. The arrangement: dose 75 mg/kg, route oral. The series is classed as ADME, organism-based. The conditions noted are these: in vivo.
Series [15] in a line: Aqueous solubility of the compound at pH 7.4 after 5 mins by HPLC analysis. The series is classed as physicochemical.
The test system of series [16] is Mus musculus. The series can be described thus: Toxicity in C57BL/6J mouse assessed as change in food intake at 150 mg/kg, po bid administered for 4 days followed by single dose on day 5 […]. It counts as organism-based. The arrangement: dose 150 mg/kg, route oral. Particulars: in vivo, 96 h.
The test system of another series is Nucleic Acid. Description: Ratio of drug uptake in C57BL/6J mouse striatum to cortical area at 75 mg/kg, po after 1 hr by MALDI-TOF mass spectrometry. It counts as ADME, organism-based. The arrangement: dose 75 mg/kg, route oral. Particulars: in vivo.
Another series deals with Striatum. The series can be described thus: Drug uptake in C57BL/6J mouse striatum at 75 mg/kg, po after 1 hr by MALDI-TOF mass spectrometry. The arrangement: dose 75 mg/kg, route oral. The series is classed as ADME, organism-based. The conditions noted are these: in vivo.
Series [17] is filed under the species Rattus norvegicus. The series can be described thus: Neuroprotective effect in Sprague-Dawley rat DA neurons under chronic oxidative stress condition. The series is classed as functional.
The species named for series [18] is Rattus norvegicus. Description: Neuroprotective effect in Sprague-Dawley rat DA neurons assessed as developement of neuritic network after 10 days by microscopic analysis relative to control. It counts as functional.
Series [19] is filed under the species Rattus norvegicus. The series can be described thus: Neuroprotective effect in Sprague-Dawley rat DA neurons after 10 days by immunofluorescence assay. It counts as functional.
The species entered for series [20] is Rattus norvegicus. The series can be described thus: Neuroprotective effect in Sprague-Dawley rat DA neurons assessed as [3H]-DA uptake after 10 days by liquid scintillation spectrometry relative to control. It counts as functional.
For series [21], the species on record is Rattus norvegicus. Description: Neuroprotective effect in Sprague-Dawley rat DA neurons assessed as developement of neuritic network at 10 uM after 10 days by microscopic analysis relative to control. It counts as functional.
The species entered for series [22] is Rattus norvegicus. The series can be described thus: Neuroprotective effect in Sprague-Dawley rat DA neurons at 10 uM after 10 days by immunofluorescence assay. The series is classed as functional.
The species entered for series [23] is Rattus norvegicus. Description: Neuroprotective effect in Sprague-Dawley rat DA neurons assessed as [3H]-DA uptake at 10 uM after 10 days by liquid scintillation spectrometry relative to control. It counts as functional.
The species entered for series [24] is Rattus norvegicus. The series can be described thus: Neuroprotective effect in Sprague-Dawley rat DA neurons at 1 mM after 10 days by immunofluorescence assay. The series is classed as functional.
The species named for series [25] is Rattus norvegicus. Description: Antiproliferative activity at Sprague-Dawley rat DA neurons assessed as reduction of [3H]-thymidine incorporation at 1 mM after 8 days by liquid scintillation spectrometry. The series is classed as functional.

The structures appear in SMILES notation. Values after ≈ are worked out from the molar mass of the structure shown. Active and inactive are the calls of the source. The rule behind the calls is not given here.

What is called IC50 is the point on the concentration scale where inhibition reaches its midpoint. By solubility is commonly meant how much of the substance goes into solution per volume. As for `Cc1nc2ccc(N)cc2nc1-c1ccccc1`, the outcome in the series filed under Rattus norvegicus [1], in the series filed under Rattus norvegicus [3], in the series filed under Rattus norvegicus [5], in the series filed under Rattus norvegicus [6], in the series listed under Rattus norvegicus [7] and in the series filed under Rattus norvegicus [8] was Active. The outcome in the series filed under Rattus norvegicus [9] was Active. The Activity entry is “Non-toxic” in the series on Mus musculus [2], “Non-toxic” with Mus musculus [12], “Non-toxic” in the series on Mus musculus [16] and “Dose-dependent effect” in the series listed under Rattus norvegicus [17]. Further, the Drug uptake entry (with Brain [4]; in series [11]; with Brain [14]; in the series with Striatum) was “Active” each time. For the same compound, the IC50 in series [10] came out at 350 µM. Also, in series [13], the Kp at 1 h was 1. For the same compound, the solubility at 5 min in series [15] came to 125 µM (≈ 29.4 µg/mL). Further, in the series on Nucleic Acid, the Ratio was found to be 2.7.

`CC(=O)N(O)CCCCCNC(=O)CCC(=O)N(O)CCCCCNC(=O)CCC(=O)N(O)CCCCCN`: the outcome in the series listed under Rattus norvegicus [3] was Active.

On to `CCCCc1cnc2ccc(N)cc2n1`, for which the outcome in the series filed under Rattus norvegicus [18], in the series filed under Rattus norvegicus [19] and in the series listed under Rattus norvegicus [20] was inactive.

For `Cc1c(C)c2c(c(C)c1O)CCC(C)(C(=O)O)O2` (configuration not stated) [TROLOX], the half-maximal inhibitory concentration (IC50) in series [10] came out at 270 µM.

In the case of `Cc1cnc2cc(N)ccc2n1`, the outcome in the series listed under Rattus norvegicus [18], in the series filed under Rattus norvegicus [19] and in the series listed under Rattus norvegicus [20] was inactive.

For `CCCCc1nc2cc(N)ccc2nc1C`, the outcome in the series listed under Rattus norvegicus [18], in the series listed under Rattus norvegicus [19] and in the series filed under Rattus norvegicus [20] was inactive.

`CCCCCCCCCCCCCCCNc1ccc2nc(C)cnc2c1`: the outcome in the series filed under Rattus norvegicus [21] and in the series listed under Rattus norvegicus [23] was Active. Also, in series [15], the concentration in solution (solubility at 5 min) was 5 µM (≈ 1.85 µg/mL). Moreover, in the series listed under Rattus norvegicus [22], the outcome was inactive.

Consider `CCCC(=O)Nc1ncnc2c1ncn2[C@@H]1O[C@@H]2COP(=O)(O)O[C@H]2[C@H]1OC(=O)CCC`, for which the result in the series listed under Rattus norvegicus [24] and in the series filed under Rattus norvegicus [25] was Active.

For the compound `Nc1ccc2nccnc2c1`, the outcome in the series filed under Rattus norvegicus [18], in the series listed under Rattus norvegicus [19] and in the series listed under Rattus norvegicus [20] was inactive.

For the compound `CCCCCCc1nc2ccc(N)cc2nc1CCCC`, the result in the series filed under Rattus norvegicus [18], in the series filed under Rattus norvegicus [19] and in the series listed under Rattus norvegicus [20] was inactive.
